Laboratory results reported in paper PMC2645951 (Bioconjugate chemistry, 2008).
Like-named read-outs stand apart in the source and are kept apart here. Where a SMILES comes first, the peptide text is derived from it. The star is where a group is joined. X1 = COc1cc2c3cc1OCCOc1cc4c(cc1OC)Cc1cc5c(OC)cc1Cc1cc(c(OCc6cn(CCOCCOCCOCCOCCOCCOCCOCCOCCNC(=O)COCC(=O)*)nn6)cc1C4)OCCOc1cc(c(cc1OC)Cc1cc(c(OC)cc1C3)OCCO5)C2

Legend:
[1] = background statement of the introduction, no reference given; cited from earlier work
Water solubility = format: physicochemical
HEK cells = conditions: over a similar range of concentrations; cited from earlier work

SMILES: COc1cc2c3cc1OCCOc1cc4c(cc1OC)Cc1cc5c(OC)cc1Cc1cc(c(OC)cc1C4)OCCOc1cc(c(cc1OC)C3)Cc1cc(OC)c(cc1C2)OCCO5 [Cryptophane-A]
- water solubility (in words) [1]: poor (low micromolar)

SMILES: COc1cc2c3cc1OCCOc1cc4c(cc1OC)Cc1cc5c(OC)cc1Cc1cc(c(OCc6cn(CCOCCOCCOCCOCCOCCOCCOCCOCCNC(=O)COCC(=O)N[C@@H](CS)C(=O)N[C@@H](CCCNC(=N)N)C(=O)NCC(=O)N[C@@H](CC(=O)O)C(=O)N[C@@H](CCCNC(=N)N)C(=O)NCC(=O)N[C@@H](CC(=O)O)C(=O)N[C@@H](CCCNC(=N)N)C(=O)NCC(=O)N[C@@H](CC(=O)O)C(=O)N[C@@H](CCCNC(=N)N)C(=O)NCC(=O)N[C@@H](CC(=O)O)C(=O)O)nn6)cc1C4)OCCOc1cc(c(cc1OC)Cc1cc(c(OC)cc1C3)OCCO5)C2 [III] (X1-CRGDRGDRGDRGD-OH; C-terminus assumed)
- water solubility (in words) (Water solubility): limited solubility

SMILES: c12c3c4c5c1c1c6c7c2c2c8c3c3c9c4c4c%10c5c5c1c1c6c6c%11c7c2c2c7c8c3c3c8c9c4c4c9c%10c5c5c1c1c6c6c%11c2c2c7c3c3c8c4c4c9c5c1c1c6c2c3c41 [fullerene C60]
- decrease in viability of HEK cells (HEK cells): 10-50%
